Measurements from patent US7045361B2, “Analyte sensing via acridine-based boronate biosensors” (Medtronic MiniMed, Inc., priority 2001, dated 2006).
Values belong to the molecule of their own block, whether it stands above or below them.

Legend:
[1] = Comparative analysis of the spectral properties of fluorophores; type: physicochemical; details: for λem(max) / λex / λem(50% max): PBS containing 0.5% DMSO at 21° C; for λem(50% max): bathochromic wavelength at 50% of maximum
Excerpt: A comparative analysis of the spectral properties of certain fluorophores is shown Table 1. […] This phenomenon is unexpected given the chemical similarity between anthracene and an acridine. As shown in the Table 1, the acridine orange fluorophore emits at even longer wavelengths.

[2] = Glucose transduction of monotopic acridine-based boronate biosensor molecules by fluorescence spectroscopy; details: for wavelength of maximum intensity (Imax): PBS with DMSO
Procedure: Glucose transduction of particular acridine-based boronate bio sensor molecules was observed using fluorescence spectroscopy. Fluorescence measurements were taken on a Yorbin Fluorolog instrument. […]
Aliquots of glucose were added and responses were measured at 436 nm, or maximum intensity. (See Table 3).
Another transduction experiment was performed with ACRAB at 500 nm, or approximately 25% of the value of maximum intensity. The data taken at 500 nm generally parallel those taken at 436 nm, thus indicating no decrease in performance of the acridine-based boronate biosensor molecule at the longer wavelength. This shift of 83 nm is very significant in that it provides about a 10-fold increase of transmission of light through tissue and skin.
MEACRAB was then diluted 100-fold to 100 nM and transduction at conditions of ambient temperature. The solution contained 0.5% DMSO.

[3] = Emission spectra in presence and absence of glucose (FIG. 14A/14B transduction experiment)
Excerpt: FIG. 14A depicts the results of a transduction experiment with anthracene boronate.
FIG. 14B depicts the results of a transduction experiment with methylacridine boronate (MEACRAB) in the presence of glucose.
A comparison of anthracene boronate and methylacridine boronate (MEACRAB) in the presence and absence of glucose further highlights the unexpected differences between these two fluorescent molecules in terms of their respective fluorescent properties, such as transduction of glucose at longer wavelengths, i.e., glucose sensing capacity as indicated by a change in fluorescence in the presence of glucose at longer wavelengths. These differences are illustrated in FIG. 14A and FIG. 14B, which depicts the emission spectra of anthracene boronate and methylacridine boronate, respectively in the presence and absence of glucose. From inspection of FIG. 14A, it can be observed that at about 440 nm, which is about at a peak of next to maximum intensity, anthracene boronate yields about 25% transduction in the presence of glucose. […] For instance, at about 500 nm, methylacridine boronate yields about 25% transduction in the presence of glucose. Thus, the ability of an acridine boronate, such as methylacridine boronate, to transduce in the presence of glucose at longer wavelengths, as compared with anthracene boronate, is unexpected. […]

Molecule: c1ccc2nc3ccccc3cc2c1 [Acridine]
λem(max) [1]: 428 nm | λex [1]: 360 nm | λem(50% max) [1]: 480 nm | emission intensity at about 480 nm relative to intensity of maximum emission wavelength [1]: approximately 50%

Molecule: Cc1ccc2nc3ccccc3c(CN(CCCCCO)Cc3ccccc3B(O)O)c2c1 [MEACRAB, aminomethylhydroxypentyl-methylacridine boronate]
Transduction ([2]; 100 nM, 0.5% DMSO, ambient temperature, 509 nm, glucose 87 mg/dL): 21% | Transduction ([2]; 100 nM, 0.5% DMSO, ambient temperature, 509 nm, glucose 173 mg/dL): 29% | Transduction ([2]; 100 nM, 0.5% DMSO, ambient temperature, 509 nm, glucose 256 mg/dL): 53% | Transduction ([2]; 100 nM, 0.5% DMSO, ambient temperature, 509 nm, glucose 341 mg/dL): 77% | Transduction ([2]; 100 nM, 0.5% DMSO, ambient temperature, 509 nm, glucose 425 mg/dL): 94% | Transduction ([2]; 100 nM, 0.5% DMSO, ambient temperature, 509 nm, glucose 510 mg/dL): 109% | Transduction ([2]; 100 nM, 0.5% DMSO, ambient temperature, 509 nm, glucose 603 mg/dL): 118% | Transduction ([2]; 100 nM, 0.5% DMSO, ambient temperature, 509 nm, glucose 683 mg/dL): 121% | Transduction ([2]; 100 nM, 0.5% DMSO, ambient temperature, 509 nm, glucose 767 mg/dL): 126% | Transduction ([2]; 100 nM, 0.5% DMSO, ambient temperature, 509 nm, glucose 834 mg/dL): 134% | Transduction ([2]; 100 nM, 0.5% DMSO, ambient temperature, 509 nm, glucose 927 mg/dL): 142% | Transduction ([2]; 100 nM, 0.5% DMSO, ambient temperature, 509 nm, glucose 1012 mg/dL): 158% | Transduction ([2]; 10 μM in PBS, 4% DMSO, 500 nm, glucose 93 mg/dL): 30% | Transduction ([2]; 10 μM in PBS, 4% DMSO, 500 nm, glucose 184 mg/dL): 60% | Transduction ([2]; 10 μM in PBS, 4% DMSO, 500 nm, glucose 275 mg/dL): 100% | Transduction ([2]; 10 μM in PBS, 4% DMSO, 500 nm, glucose 364 mg/dL): 120% | Transduction ([2]; 10 μM in PBS, 4% DMSO, 500 nm, glucose 459 mg/dL): 170% | Transduction ([2]; 10 μM in PBS, 4% DMSO, 500 nm, glucose 547 mg/dL): 190% | Transduction ([2]; 10 μM in PBS, 4% DMSO, 500 nm, glucose 650 mg/dL): 220% | intensity at 500 nm relative to the value of maximum intensity ([2]; 500 nm): 25% | wavelength of maximum intensity (Imax) [2]: 438 nm | performance at 100 nM compared with ACRAB, or MEACRAB itself, at 10 μM ([2]; emission wavelength of 500 nm, 0.5% DMSO): performed better | transduction in the presence of glucose ([3]; at about 440 nm): about 50% | transduction in the presence of glucose ([3]; at about 500 nm): about 25%

Molecule: aminomethylhydroxypentyl-acridine boronate [ACRAB]
intensity at 500 nm relative to the value of maximum intensity ([2]; 500 nm): approximately 25% | Transduction ([2]; 500 nm, glucose 49 mg/dL): 11% | Transduction ([2]; 500 nm, glucose 149 mg/dL): 24% | Transduction ([2]; 500 nm, glucose 198 mg/dL): 37% | Transduction ([2]; 500 nm, glucose 284 mg/dL): 47% | Transduction ([2]; 500 nm, glucose 374 mg/dL): 56% | Transduction ([2]; 500 nm, glucose 441 mg/dL): 62% | Transduction ([2]; 500 nm, glucose 559 mg/dL): 67% | wavelength of maximum intensity (Imax) [2]: 436 nm | Transduction ([2]; approx 10 μM, PBS pH 7.4, 0.5% DMSO, 436 nm, glucose 50 mg/dL): 15% | Transduction ([2]; approx 10 μM, PBS pH 7.4, 0.5% DMSO, 436 nm, glucose 150 mg/dL): 27% | Transduction ([2]; approx 10 μM, PBS pH 7.4, 0.5% DMSO, 436 nm, glucose 200 mg/dL): 41% | Transduction ([2]; approx 10 μM, PBS pH 7.4, 0.5% DMSO, 436 nm, glucose 300 mg/dL): 48%

Second part, the molecule after the results:

emission profile detectable out to [1]: 575–600 nm | maximum emission [1]: 525 nm | λem(max) [1]: 526 nm | λex [1]: 493 nm | λem(50% max) [1]: 567 nm
Molecule: CN(C)c1ccc2cc3ccc(N(C)C)cc3nc2c1 [Acridine Orange, 3,6-bis(dimethylamino)acridine]

λem(max) [1]: 417 nm | λex [1]: 370 nm | λem(50% max) [1]: 428 nm | emission intensity at about 480 nm relative to intensity of maximum emission wavelength [1]: no detectable emission
Molecule: c1ccc2cc3ccccc3cc2c1 [Anthracene]
